Results reported in patent US8834921B2, “Sustained-release liposomal anesthetic compositions” (Pacira Pharmaceuticals, Inc., priority 1997, dated 2014).
Structures can show the parent of a compound that is named as a salt.

Assays:
mice = experiment: Determination of maximum tolerated dose (MTD), subcutaneous test; type: in vivo; conditions: highest dose at which none of the animals experienced systemic toxicity
Source text: (§1) Male guinea pigs weighing 800-1000 grams (Harlan-Sprague-Dawley, San Diego, Calif.) were used for efficacy studies. Male guinea pigs (Harlan-Sprague-Dawley) weighing 400-600 grams were used for pharmacokinetic studies. The animals were housed, 1 per cage, in a temperature-controlled environment with alternating 12-hour periods of light and darkness and given unrestricted access to food and water. Prior to each study, animals were habituated to the environment for at least 7 days. Female CDI mice (Sprague-Dawley) weighing 22-28 grams were used for determination of maximum tolerated dose (MTD). All animals were maintained in accordance with guidelines of the Committee on Care and Use of Laboratory Animals of the Institute of Laboratory Animal Resources, National Research Council.
Determination of maximum tolerated dose (MTD) was done in mice using a subcutaneous test known in the art (R. H. de long et al., Anesthesiology 54:177-81, 1981). Groups of three mice each were given injections of either 780 or 980 mg per kg body weight of the above-described MVL formulation containing bupivacaine sulfate as two divided doses of 500 μl each (total 1.0 mL volume). The doses were administered in rapid sequence into each flank. Control groups of 3 mice each received one of the test doses as a single dose of 10, 20, 30 or 50 mg/kg body weight of unencapsulated bupivacaine hydrochloride. […]

in vivo = experiment: in vivo; parameters: species or system guinea pigs; conditions: guinea pig; for half-life: t1/2 (hr)
Source text: as §1
The in vivo pharmacokinetics of the MVL formulations of bupivacaine and free bupivacaine hydrochloride were compared following a single 1 mL intracutaneous dose of the MVL formulation containing 1.0 percent (w/v) of bupivacaine, or a dose of 0.5 percent (w/v) of unencapsulated bupivacaine hydrochloride to a group of guinea pigs. […] For the animals that received free bupivacaine hydrochloride, samples were collected at 0 and 30 minutes, and 1, 3, 6 and 9 hours following injection, while the animals that received the MVL formulations of bupivacaine were sampled 0, 6, 12, 18, 24, 48, and 72 hours following injection. At each time point, 3 or more animals were first anesthetized with halothane and then exanguinated by cardiac puncture. Serum samples were obtained by centrifugation of clotted whole blood. Skin was collected around the injection site with 3 cm margins, together with a 2-3 mm layer of underlying subcutaneous tissue. The skin and serum samples were kept frozen at −20° C. until analysis.
The amount of total bupivacaine remaining in the injection site was obtained by mincing the tissue followed by in toto homogenization in water using a Polytron homogenizer (Brinkman, Littau, Switzerland). Bupivacaine was extracted from the homogenate and analyzed by HPLC using a previously published method (Le Guevello et al., J. Chromatography 622:284-290, 1993). Bupivacaine concentration in serum was determined by extraction followed by HPLC (Le Guevello et al., supra). Tetracaine spiked into each sample before extraction was used as an internal standard. The limit of detection of the assay was 20 ng/mL.
Pharmacokinetic data obtained from the samples were analyzed using a noncompartmental model (WinNonlin software, Scientific Consulting, Inc., Apex, N.C.). Parameters calculated were the drug amount remaining at the injection site, the area under the “amount vs. time” curve (AUC), and drug half-life (t1/2,). In addition to the AUC and half-life, peak concentration (Cmax) was also reported for serum bupivacaine pharmacokinetics.
One way analysis of variance (ANOVA) was used to separately determine dose dependency for the different drug formulations and route of administration (via MVL or free drug) as well as for comparison between formulations. Student-Newman-Keuls tests were used on all ANOVA analyses.

For `CCCCN1CCCCC1C(=O)Nc1c(C)cccc1C` (centres unmarked) [Bupivacaine hydrochloride], the “maximum tolerated dose (MTD)” value (mice) was “about 20 mg/kg of body weight”, the “AUC (mg * hr), Skin” value (in vivo) was 2.9 mg·h and the “tolerability of the intracutaneous dose” value (in vivo) was “unable to tolerate”. For the same molecule, the AUC (in vivo; male) was 21200 ng·h/mL, the Cmax (in vivo; male) was 6500 ng/mL and the “Peak Amount (mg), Skin” value (in vivo; male) was 3.8 mg. For the same molecule, the half-life (in vivo; male, Serum) was 2.1 h and the half-life (in vivo; male, Skin) was 1.3 h.
